Source: US12605396B2, “Methods of treating mastitis with an orthosomycin antimicrobial compound” (Intervet Inc., priority 2020, dated 2026)
In brackets after ≈: the same amount, converted by molar mass.

Experiments:
Strep. agalactiae = assay: MIC in bacteriological broth (CLSI VET01-A4); format: cell-based, Streptococcus agalactiae
Method: (§1) Minimal inhibitory concentrations (MIC) were determined in bacteriological broth according to Clinical and Laboratory Standard Institute (CLSI) guideline VET01-A4 [1]. The MIC results were interpreted according to the CLSI document VET01-S3 [2].

S. aureus [1] = assay: MIC in bacteriological broth (CLSI VET01-A4); format: cell-based, Staphylococcus aureus
Method: as §1

S. aureus [2] = assay: MIC in full cream UHT milk with alamar Blue; format: cell-based, Staphylococcus aureus
Method: (§2) For MIC determination in milk, the in vitro activity was determined by measuring the minimum inhibitory concentrations (MIC) according to CLSI document VET01-A4 [1] using full cream UHT milk as test medium. About 2 h before the end of the incubation 10 μL of alamar Blue® was added to each well of the microdilution trays, resulting in a final concentration of 10% of alamar Blue®. Blue color of the medium indicated no living cells (no bacterial growth) red/pink to white color of the medium indicated living cells (bacterial growth). The MIC results were interpreted according to the CLSI document VET01-S3 [2].

Truep. pyogenes = assay: MIC in bacteriological broth (CLSI VET01-A4); format: cell-based, Trueperella pyogenes
Method: as §1

Strep. dysgalactiae = assay: MIC in bacteriological broth (CLSI VET01-A4); format: cell-based, Streptococcus dysgalactiae
Method: as §1

[3] = tested on: mastitis-causing pathogens; assay: Antimicrobial activity against mastitis-causing pathogens (overall statement); format: cell-based; conditions: broth-dilution assay and milk
Method: as §1, §2

S. uberis = assay: MIC in bacteriological broth (CLSI VET01-A4); format: cell-based, Streptococcus uberis
Method: as §1

coa-neg Staph. = assay: MIC in bacteriological broth (CLSI VET01-A4); format: cell-based, coagulase-negative staphylococci
Method: as §1

Streptococcus uberis = assay: Experimental mastitis infection model in lactating cows; format: in vivo; conditions: oily suspension 200 mg/quarter intramammary, three consecutive times after milking, 21 days observation, FIG. 1
Method: In short, the hind quarters of 10 healthy cows were infected with Streptococcus uberis by intramammary application of 100 bacteria per quarter. At appearance of clinical signs of the challenged quarters (abnormal milk appearance, swollen/hard quarter, pain on palpation) one hind quarter of each cow was treated with an oily suspension of avilamycin at a dose of 200 mg/quarter at three consecutive times after milking. Furthermore, the neighboring infected hint quarter showing clinical signs was mock treated with formulation vehicle at the identical dose volume and schedule. Milk samples were analyzed for S. uberis over a period of 21 days.

[4] = bacteriological broth, 30 Strep. agalactiae isolates tested
[5] = broth, of 30 Strep. agalactiae isolates
[6] = bacteriological broth, 50 S. aureus isolates tested
[7] = broth, of 50 S. aureus isolates
[8] = bacteriological broth, 30 Truep. pyogenes isolates tested
[9] = broth, of 30 Truep. pyogenes isolates
[10] = bacteriological broth, 29 Strep. dysgalactiae isolates tested
[11] = broth, of 29 Strep. dysgalactiae isolates
[12] = bacteriological broth, 30 S. uberis isolates tested
[13] = broth, of 30 S. uberis isolates
[14] = bacteriological broth, 30 coa-neg Staph. isolates tested
[15] = broth, of 30 coa-neg Staph. isolates

With `COC[C@H]1O[C@@H](OC2OC[C@@H]3O[C@]4(O[C@H]3[C@H]2OC(=O)C(C)C)O[C@H](C)[C@@](O)(C(C)=O)[C@@H]2OCO[C@H]24)[C@@H](OC)[C@@H](O)[C@@H]1O[C@@H]1O[C@H](C)[C@H](OC)[C@H](O[C@H]2C[C@@]3(C)OC4(C[C@@H](O)[C@H](O[C@H]5C[C@@H](O)[C@H](OC(=O)c6c(C)c(Cl)c(O)c(Cl)c6OC)[C@@H](C)O5)[C@@H](C)O4)O[C@@H]3[C@@H](C)O2)[C@H]1O` (some centres unmarked) [avilamycin] the MIC50 (Strep. agalactiae; [4]) was no more than 0.063 µg/mL, the MIC90 (Strep. agalactiae; [4]) was 0.125 µg/mL (≈ 0.089 µM) and the “Maximum MIC” value (Strep. agalactiae; [4]) was 0.125 µg/mL. The “Minimum MIC” value (Strep. agalactiae; [4]) was no more than 0.063 µg/mL, the “Number of isolates with MIC 0.125 μg/mL” value (Strep. agalactiae; [5]) was 13 and the “Number of isolates with MIC ≤0.063 μg/mL” value (Strep. agalactiae; [5]) was 17. The MIC50 (S. aureus [1]; [6]) was 2 µg/mL (≈ 1.42 µM), the MIC90 (S. aureus [1]; [6]) was 4 µg/mL (≈ 2.85 µM) and the “Maximum MIC” value (S. aureus [1]; [6]) was 4 µg/mL. For the same molecule, the “Minimum MIC” value (S. aureus [1]; [6]) was 1 µg/mL, the “Number of isolates with MIC 1 μg/mL” value (S. aureus [1]; [7]) was 5 and the “Number of isolates with MIC 2 μg/mL” value (S. aureus [1]; [7]) was 19. For the same molecule, the “Number of isolates with MIC 4 μg/mL” value (S. aureus [1]; [7]) was 26, the “Activity in milk” value (S. aureus [2]) was “maintained its activity” and the “MIC90 against S. aureus compared with MIC90 of penicillin G” value (S. aureus [2]) was “significantly lower”. For the same molecule, the “Distribution of MIC values: isolates with MIC 0.125 μg/ml” value (S. aureus [2]; S. aureus (n = 20)) was 0, the “Distribution of MIC values: isolates with MIC 0.25 μg/ml” value (S. aureus [2]; S. aureus (n = 20)) was 0 and the “Distribution of MIC values: isolates with MIC 0.5 μg/ml” value (S. aureus [2]; S. aureus (n = 20)) was 1. For the same molecule, the “Distribution of MIC values: isolates with MIC 1 μg/ml” value (S. aureus [2]; S. aureus (n = 20)) was 1, the “Distribution of MIC values: isolates with MIC 2 μg/ml” value (S. aureus [2]; S. aureus (n = 20)) was 1 and the “Distribution of MIC values: isolates with MIC 4 μg/ml” value (S. aureus [2]; S. aureus (n = 20)) was 16. The “Distribution of MIC values: isolates with MIC 8 μg/ml” value (S. aureus [2]; S. aureus (n = 20)) was 1, the “Distribution of MIC values: isolates with MIC 16 μg/ml” value (S. aureus [2]; S. aureus (n = 20)) was 0 and the “Distribution of MIC values: isolates with MIC 32 μg/ml” value (S. aureus [2]; S. aureus (n = 20)) was 0. The “Distribution of MIC values: isolates with MIC 64 μg/ml” value (S. aureus [2]; S. aureus (n = 20)) was 0, the “Distribution of MIC values: isolates with MIC >64 μg/ml” value (S. aureus [2]; S. aureus (n = 20)) was 0 and the “Distribution of MIC values: isolates with MIC ≤0.063 μg/ml” value (S. aureus [2]; S. aureus (n = 20)) was 0. For the same molecule, the MIC90 (S. aureus [2]; S. aureus (n = 20)) was 4 µg/mL (≈ 2.85 µM), the MIC50 (Truep. pyogenes; [8]) was no more than 0.063 µg/mL and the MIC90 (Truep. pyogenes; [8]) was no more than 0.063 µg/mL. The “Maximum MIC” value (Truep. pyogenes; [8]) was 0.125 µg/mL, the “Minimum MIC” value (Truep. pyogenes; [8]) was no more than 0.063 µg/mL and the “Number of isolates with MIC 0.125 μg/mL” value (Truep. pyogenes; [9]) was 1. For the same molecule, the “Number of isolates with MIC ≤0.063 μg/mL” value (Truep. pyogenes; [9]) was 29, the MIC50 (Strep. dysgalactiae; [10]) was 0.125 µg/mL (≈ 0.089 µM) and the MIC90 (Strep. dysgalactiae; [10]) was 0.25 µg/mL (≈ 0.178 µM). For the same molecule, the “Maximum MIC” value (Strep. dysgalactiae; [10]) was 0.25 µg/mL, the “Minimum MIC” value (Strep. dysgalactiae; [10]) was no more than 0.063 µg/mL and the “Number of isolates with MIC 0.125 μg/mL” value (Strep. dysgalactiae; [11]) was 23. For the same molecule, the “Number of isolates with MIC 0.25 μg/mL” value (Strep. dysgalactiae; [11]) was 5, the “Number of isolates with MIC ≤0.063 μg/mL” value (Strep. dysgalactiae; [11]) was 1 and the “Antimicrobial activity against mastitis-causing pathogens” value [3] was “Good antimicrobial activity”. For the same molecule, the MIC50 (S. uberis; [12]) was 0.5 µg/mL (≈ 0.356 µM), the MIC90 (S. uberis; [12]) was 0.5 µg/mL (≈ 0.356 µM) and the “Maximum MIC” value (S. uberis; [12]) was 0.5 µg/mL. The “Minimum MIC” value (S. uberis; [12]) was 0.125 µg/mL, the “Number of isolates with MIC 0.125 μg/mL” value (S. uberis; [13]) was 1 and the “Number of isolates with MIC 0.25 μg/mL” value (S. uberis; [13]) was 12. For the same molecule, the “Number of isolates with MIC 0.5 μg/mL” value (S. uberis; [13]) was 17, the MIC50 (coa-neg Staph.; [14]) was 2 µg/mL (≈ 1.42 µM) and the MIC90 (coa-neg Staph.; [14]) was 4 µg/mL (≈ 2.85 µM). For the same molecule, the “Maximum MIC” value (coa-neg Staph.; [14]) was 32 µg/mL, the “Minimum MIC” value (coa-neg Staph.; [14]) was 1 µg/mL and the “Number of isolates with MIC 1 μg/mL” value (coa-neg Staph.; [15]) was 4. The “Number of isolates with MIC 2 μg/mL” value (coa-neg Staph.; [15]) was 13, the “Number of isolates with MIC 4 μg/mL” value (coa-neg Staph.; [15]) was 11 and the “Number of isolates with MIC 8 μg/mL” value (coa-neg Staph.; [15]) was 1. The “Number of isolates with MIC 32 μg/mL” value (coa-neg Staph.; [15]) was 1 and the “Proportion of quarters free of S. uberis compared to quarters treated with vehicle” value (Streptococcus uberis) was “substantially higher”.
